This is an account of results in US20100093760A1, “METHODS FOR IDENTIFYING COMPOUNDS THAT MODULATE CELL SIGNALING AND METHODS EMPLOYING SUCH COMPOUNDS” (The General Hospital Corporation, priority 2006, published 2010).

Entries after “also recorded” stand apart in the source; their conditions may differ.

For assay [1], the system named is BMP signaling pathway (activation of SMAD1/5/8 by BMP4). The experiment in a line: Cellular ELISA of BMP4-mediated SMAD1/5/8 activation. Format: cell-based. The method, then: In one example, the cell-based assay of the invention is an enzyme linked immunosorbent assay (ELISA) in which activation of SMAD proteins (SMAD2 or SMAD1/5/8) is measured. […] As discussed above, SMAD proteins are phosphorylated by heteromeric complexes of type I and type II BMP or TGF-β serine-threonine kinase receptors when engaged by ligands. The principal effects of these ligands are generally attributable to gene transcription from the activation of specific SMADs. Phosphorylated SMADs can be detected in whole cell extracts using commercially available anti-phospho-protein antibodies with high specificity by Western blotting (Yu et al., J. Biol. Chem. 280:24443-24450, 2005).
In an improved method provided by the invention, phosphorylated SMADs are detected in whole cells with high sensitivity and specificity by immobilizing and rendering the phospho-SMAD antigens accessible to antibody. Traditional fixation with 1% to 8% paraformaldehyde solution followed by permeabilization with methanol, or a solution of dilute detergent such as Triton-X100, yields unacceptable results, with the signal being only 1.2 to 1.3 times the background, if it is detected at all (while Western blot these signal-to-noise ratios would be 10 to 20). […]

The test system of assay [2] is BMP-mediated SMAD1/5/8 activation in BMPR-II-deficient PASMCs. The experiment in a line: BMP-induced SMAD1/5/8 activation in BMPR-II-deficient PASMCs. Type of assay: cell-based, murine. The protocol:
Wild-type and BMPR-II-deficient PASMC were isolated as previously described (Yu et al., J. Biol. Chem. 280:24443-24450, 2005), and cultured in RPMI medium (Invitrogen) supplemented with 10% FBS. C2C12 cells (American Type Culture Collection, Manassas, Va.) were cultured in DMEM supplemented with glutamine and 10% FBS. HepG2 cells and Hep3B cells (ATCC) were cultured in Minimal Essential Alpha Medium with L-glutamine (α-MEM, Invitrogen) containing 10% FBS. For studies of SMAD activation in vitro, PASMC were incubated in 0.5% FCS RPMI for 24 hours, followed by preincubation with drug compounds, noggin, or vehicle for 30 minutes, followed the addition of recombinant BMPs 2, 4, 6, or 7, or TGF-β1 or Activin A (R&D Systems, Minneapolis, Minn.) for 30 minutes.
(§1) Cell extracts or tissues were mechanically homogenized in SDS-lysis buffer (62.5 mM Tris-HCl (pH 6.8), 2% SDS, 10% glycerol, 50 mM DTT, 0.01% bromophenol blue); separated by SDS-PAGE; immunoblotted with anti-phospho-SMAD1/5/8, anti-phospho-SMAD2 (Cell Signaling, Beverly, Mass.), or anti-α-tubulin (Upstate/Millipore, Billerica, Mass.) Abs; and visualized using ECL Plus (GE Healthcare, Piscataway, N.J.). Levels of immunoreactive proteins were quantitated by ImageQuant software on a Storm phosphorimager (GE Healthcare).

Assay [3] relates to caALK6. The experiment in a line: Constitutively-active ALK6 transfection: phospho-SMAD1/5/8 immunoblot and Id1 promoter (BRE-Luc). Format: cell-based. The protocol:
as §1
Murine PASMCs grown to 50% confluence in 6-well plates were transiently transfected with 0.3 μg Id1 promoter luciferase reporter construct (BRE-Luc, Dr. Peter ten Dijke, Leiden University Medical Center, Netherlands (Korchynskyi et al., J. Biol. Chem. 277:4883-4891, 2002)) in combination with 0.6 μg plasmids expressing constitutively-active forms of BMP type I receptors (caALK2, caALK3, or caALK6, kindly provided by Dr. Kohei Miyazono, University of Tokyo, Japan (Fujii et al., Mol. Biol. Cell 10:3801-3813, 1999)), using Fugene6 (Roche). To assess Activin and […] type I receptor function, PASMCs were transiently transfected with 0.3 μg PAI-1 promoter luciferase reporter construct (CAGA-Luc, Dr. Peter ten Dijke (Dennler et al., Embo J. 17:3091-3100, 1998)) in combination with 0.6 μg plasmids expressing constitutively active forms of type I receptors (caALK4, caALK5, and caALK7, also provided by Dr. Kohei Miyazono (Okadome et al., J. Biol. Chem. 271:21687-21690, 1996; Shimizu et al., Genes Cells 3:125-134, 1998)). For both reporters, 0.2 μg pRL-TK Renilla luciferase (Promega) was used to control for transfection efficiency. PASMCs were incubated with Compound C/Dorsomorphin (4-10 μM) or vehicle starting one hour after transfection, for 24 hours or completion of the experiment. Cell extracts were harvested, and relative promoter activity quantitated by the ratio of firefly to Renilla luciferase activity using the dual luciferase assay kit (Promega). […] Hepcidin promoter activity was measured by luciferase assay as above.
On the technique in general: Immunoblotting shows a protein as a band on a membrane.

Assay [4] relates to murine hepcidin (HAMP1) mRNA. Description: Basal hepatic hepcidin mRNA in mice. Format: in vivo. The following applies: C57BL/6 mice, single tail vein injection 10 mg/kg, 6 hours.

On to `c1cc(-c2cnn3cc(-c4ccc(OCCN5CCCCC5)cc4)cnc23)ccn1` [Compound C/Dorsomorphin], for which the “Preference for BMP-mediated SMAD1/5/8 over TGF-β-mediated SMAD2 phosphorylation” value in assay [1] (FIG. 4) is “potently and preferentially inhibited; also recorded: preferentially inhibits”. Moreover, in assay [1] (FIG. 4, read-out: IC50, inhibition of activation of the BMP signaling pathway (SMAD1/5/8 by BMP4)), the IC50 was below 200 nM. Moreover, the “effect on activation of SMAD1/5/8 by BMPs 2, 4, 6, and 7” value in assay [2] (BMPR-II-deficient PASMCs, 4 μM, BMPs 10 ng/ml, 30 minutes) is recorded as “inhibited”. Further, in assay [2] (wild type and BMP type II receptor knockout cells), the “effect on activity of BMPs 2, 4, 6, 7, and 9” value is “effectively inhibits”. Further, in assay [3] (BMPR-II-deficient PASMCs, 10 μM, immunoblot), the “effect on caALK6-induced increase in phospho-SMAD1/5/8” value was “inhibited”. Further, in assay [3] (BMPR-II-deficient PASMCs, 0.5-20 μM), the “effect on caALK6-mediated Id1 promoter activity (BRE-Luc)” value is recorded as “inhibited; also recorded: decreased”. The “selectivity among constitutively-active BMP type I receptors” value in assay [3] (BRE-Luc, FIG. 21h) was “apparent selectivity for caALK2 and caALK3 over caALK6”. In assay [4], the “liver hepcidin mRNA relative to controls” value is “one-third”.
